From ChEMBL document CHEMBL1201862, “PubChem BioAssay data set” (2004)
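Tested at 5 concentrations; 48 h exposure; 96-well plates; endpoints linearly interpolated, else capped at highest concentration. The concentration for 50% growth inhibition is given as GI50.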 Calls of active or inactive are those of the source. Rule as the data show it: active = GI50 up to about 1.1 µM and inactive = higher.

Key:
Assay in all cases: DTP human tumour cell line panel, 48 h
[1] = test system: 786-0
[2] = test system: A498
[3] = test system: A549
[4] = test system: ACHN
[5] = test system: CAKI-1
[6] = test system: CCRF-CEM
[7] = test system: COLO 205
[8] = test system: DLD-1
[9] = test system: DMS-114
[10] = test system: DMS-273
[11] = test system: EKVX
[12] = test system: HCC 2998
[13] = test system: HCT-116
[14] = test system: HCT-15
[15] = test system: HL-60
[16] = test system: HOP-18
[17] = test system: HOP-62
[18] = test system: HOP-92
[19] = test system: HT-29
[20] = test system: IGROV-1
[21] = test system: K562
[22] = test system: KM-20L2
[23] = test system: KM12
[24] = test system: LOX IMVI
[25] = test system: LXFL 529
[26] = test system: M14
[27] = test system: M19-MEL
[28] = test system: MOLT-4
[29] = test system: Malme-3M
[30] = test system: NCI-H226
[31] = test system: NCI-H23
[32] = test system: NCI-H460
[33] = test system: NCI-H522
[34] = test system: OVCAR-3
[35] = test system: OVCAR-4
[36] = test system: OVCAR-5
[37] = test system: OVCAR-8
[38] = test system: RPMI-8226
[39] = test system: RXF 393
[40] = test system: SF-268
[41] = test system: SF-295
[42] = test system: SF-539
[43] = test system: SK-MEL-28
[44] = test system: SK-MEL-2
[45] = test system: SK-MEL-5
[46] = test system: SK-OV-3
[47] = test system: SN12C
[48] = test system: SNB-19
[49] = test system: SNB-75
[50] = test system: SNB-78
[51] = test system: SW-620
[52] = test system: TK-10
[53] = test system: U-251
[54] = test system: UACC-257
[55] = test system: UACC-62
[56] = test system: UO-31
[57] = test system: XF498
[58] = test system: SR

In the case of `CC1=[N+]([O-])c2ccccc2C(=O)C1=O`, the GI50 [1] is reported as > 100 µM (inactive), the GI50 [2] is reported as > 100 µM (inactive) and the GI50 [3] is reported as > 100 µM (inactive). The GI50 [4] was > 100 µM (inactive), the GI50 [5] was > 100 µM (inactive) and the GI50 [6] was 25.9 µM (inactive). For the same compound, the GI50 [7] was > 100 µM (inactive), the GI50 [8] was > 100 µM (inactive) and the GI50 [9] was > 100 µM (inactive). For the same compound, the GI50 [10] was > 100 µM (inactive), the GI50 [11] was > 100 µM (inactive) and the GI50 [12] was > 100 µM (inactive). The GI50 [13] was 48 µM (inactive), the GI50 [14] was 56.4 µM and the GI50 [15] was 40.3 µM (inactive). The GI50 [16] was > 100 µM (inactive), the GI50 [17] was > 100 µM (inactive) and the GI50 [18] was 69 µM (inactive). For the same compound, the GI50 [19] was > 100 µM (inactive), the GI50 [20] was > 100 µM (inactive) and the GI50 [21] was 29.1 µM (inactive). For the same compound, the GI50 [22] was > 100 µM (inactive), the GI50 [23] was > 100 µM (inactive) and the GI50 [24] was 41 µM (inactive). The GI50 [25] was > 100 µM (inactive), the GI50 [26] was > 100 µM (inactive) and the GI50 [27] was 44.8 µM (inactive). For the same compound, the GI50 [28] was 43.2 µM (inactive), the GI50 [29] was > 100 µM (inactive) and the GI50 [30] was 15.8 µM (inactive). For the same compound, the GI50 [31] was 92.9 µM (inactive), the GI50 [32] was 61 µM (inactive) and the GI50 [33] was 23.3 µM (inactive). For the same compound, the GI50 [34] was 29.2 µM (inactive), the GI50 [35] was 68.5 µM (inactive) and the GI50 [36] was > 100 µM (inactive). The GI50 [37] was > 100 µM (inactive), the GI50 [38] was 35.5 µM (inactive) and the GI50 [39] was 81.1 µM (inactive). The GI50 [40] was 42.2 µM (inactive), the GI50 [41] was > 100 µM (inactive) and the GI50 [42] was > 100 µM (inactive). For the same compound, the GI50 [43] was > 100 µM (inactive), the GI50 [44] was > 100 µM (inactive) and the GI50 [45] was > 100 µM (inactive). The GI50 [46] was > 100 µM (inactive), the GI50 [47] was > 100 µM (inactive) and the GI50 [48] was 93.8 µM (inactive). For the same compound, the GI50 [49] was > 100 µM (inactive), the GI50 [50] was > 100 µM (inactive) and the GI50 [51] was 89.5 µM (inactive). The GI50 [52] was > 100 µM (inactive), the GI50 [53] was 99.8 µM (inactive) and the GI50 [54] was 65.8 µM (inactive). For the same compound, the GI50 [55] was 55.6 µM (inactive), the GI50 [56] was > 100 µM (inactive) and the GI50 [57] was > 100 µM (inactive).
In the case of `CC(CCC[C@H](C)CO)[C@H]1[C@@H](O)C(O)C2[C@@H]3C[C@@H](O)C4(O)C[C@@H](O)CC[C@]4(C)C3CC[C@@]21C` (some centres undefined), the GI50 [1] is reported as > 100 µM (inactive), the GI50 [3] is reported as > 100 µM (inactive) and the GI50 [4] is reported as > 100 µM (inactive). The GI50 [5] was > 100 µM (inactive), the GI50 [6] was 40.9 µM (inactive) and the GI50 [7] was > 100 µM (inactive). For the same compound, the GI50 [8] was > 100 µM (inactive), the GI50 [9] was 84.7 µM (inactive) and the GI50 [10] was > 100 µM (inactive). For the same compound, the GI50 [11] was > 100 µM (inactive), the GI50 [12] was > 100 µM (inactive) and the GI50 [13] was > 100 µM (inactive). The GI50 [14] was greater than 100 µM, the GI50 [15] was 44.9 µM (inactive) and the GI50 [16] was > 100 µM (inactive). For the same compound, the GI50 [17] was > 100 µM (inactive), the GI50 [18] was 87.3 µM (inactive) and the GI50 [19] was > 100 µM (inactive). The GI50 [20] was > 100 µM (inactive), the GI50 [21] was 31.8 µM (inactive) and the GI50 [22] was > 100 µM (inactive). The GI50 [23] was > 100 µM (inactive), the GI50 [24] was > 100 µM (inactive) and the GI50 [25] was > 100 µM (inactive). The GI50 [26] was > 100 µM (inactive), the GI50 [27] was > 100 µM (inactive) and the GI50 [28] was > 100 µM (inactive). The GI50 [29] was > 100 µM (inactive), the GI50 [30] was > 100 µM (inactive) and the GI50 [31] was > 100 µM (inactive). For the same compound, the GI50 [32] was > 100 µM (inactive), the GI50 [33] was > 100 µM (inactive) and the GI50 [34] was > 100 µM (inactive). The GI50 [35] was > 100 µM (inactive), the GI50 [37] was > 100 µM (inactive) and the GI50 [38] was > 100 µM (inactive). The GI50 [39] was > 100 µM (inactive), the GI50 [40] was > 100 µM (inactive) and the GI50 [41] was > 100 µM (inactive). The GI50 [42] was > 100 µM (inactive), the GI50 [43] was > 100 µM (inactive) and the GI50 [44] was > 100 µM (inactive). The GI50 [45] was > 100 µM (inactive), the GI50 [46] was > 100 µM (inactive) and the GI50 [47] was > 100 µM (inactive). The GI50 [48] was > 100 µM (inactive), the GI50 [49] was > 100 µM (inactive) and the GI50 [50] was > 100 µM (inactive). For the same compound, the GI50 [58] was 36 µM (inactive), the GI50 [51] was > 100 µM (inactive) and the GI50 [52] was > 100 µM (inactive). For the same compound, the GI50 [53] was > 100 µM (inactive), the GI50 [54] was > 100 µM (inactive) and the GI50 [55] was > 100 µM (inactive). For the same compound, the GI50 [56] was > 100 µM (inactive) and the GI50 [57] was > 100 µM (inactive).
For `CCOc1ccccc1/N=N/c1c(-c2ccccc2)nn(C(=O)CC(=O)Nc2cccc(Cl)c2)c1-c1ccccc1`, the GI50 [1] was 89.1 µM (inactive), the GI50 [3] was 54 µM (inactive) and the GI50 [4] was 18.7 µM (inactive). For the same compound, the GI50 [5] was 43.1 µM (inactive), the GI50 [6] was 37.8 µM (inactive) and the GI50 [7] was > 100 µM (inactive). The GI50 [8] was 20.4 µM (inactive), the GI50 [9] was 15.9 µM (inactive) and the GI50 [10] was 22.5 µM (inactive). The GI50 [11] was 41.1 µM (inactive), the GI50 [12] was 26.2 µM (inactive) and the GI50 [13] was 35.1 µM (inactive). The GI50 [15] was 58.6 µM (inactive), the GI50 [16] was > 100 µM (inactive) and the GI50 [17] was 72.9 µM (inactive). For the same compound, the GI50 [18] was 50.7 µM (inactive), the GI50 [19] was 30 µM (inactive) and the GI50 [20] was 68.9 µM (inactive). The GI50 [21] was 32.2 µM (inactive), the GI50 [22] was 68.2 µM (inactive) and the GI50 [23] was 31.8 µM (inactive). For the same compound, the GI50 [24] was 35.7 µM (inactive), the GI50 [25] was 39.5 µM (inactive) and the GI50 [26] was > 100 µM (inactive). For the same compound, the GI50 [27] was 76.6 µM (inactive), the GI50 [28] was 51.6 µM (inactive) and the GI50 [29] was > 100 µM (inactive). For the same compound, the GI50 [30] was 64.1 µM (inactive), the GI50 [31] was 61.8 µM (inactive) and the GI50 [32] was 44.6 µM (inactive). For the same compound, the GI50 [33] was 40.5 µM (inactive), the GI50 [34] was 24.7 µM (inactive) and the GI50 [35] was 23.1 µM (inactive). For the same compound, the GI50 [36] was 50.8 µM (inactive), the GI50 [37] was 63.5 µM (inactive) and the GI50 [38] was 46.9 µM (inactive). The GI50 [39] was 95.7 µM (inactive), the GI50 [40] was 29.2 µM (inactive) and the GI50 [41] was 50.4 µM (inactive). For the same compound, the GI50 [42] was 62.1 µM (inactive), the GI50 [43] was 31.9 µM (inactive) and the GI50 [44] was > 100 µM (inactive). The GI50 [45] was 52.2 µM (inactive), the GI50 [46] was > 100 µM (inactive) and the GI50 [47] was 40.4 µM (inactive). The GI50 [48] was 68.9 µM (inactive), the GI50 [49] was 33.8 µM (inactive) and the GI50 [50] was 59.3 µM (inactive). The GI50 [58] was 61 µM (inactive), the GI50 [51] was > 100 µM (inactive) and the GI50 [52] was > 100 µM (inactive). The GI50 [53] was 39.5 µM (inactive), the GI50 [54] was 98.2 µM (inactive) and the GI50 [55] was 39.6 µM (inactive). The GI50 [56] was 19.2 µM (inactive) and the GI50 [57] was 62.4 µM (inactive).
